Among the data in ChEMBL document CHEMBL5291721, “A preclinical secondary pharmacology resource illuminates target-adverse drug reaction associations of marketed drugs” (Nat Commun, 2023) are AC50 values, retold here.

Where only a bound is given, the exact number is not on record here.

Assay [1] addresses Sodium-dependent dopamine transporter (Homo sapiens, UniProt Q01959).
Assay [2] has as its target T1, Alpha-2A adrenergic receptor (Homo sapiens, UniProt P08913).
T1 sequence (P08913 whole entry): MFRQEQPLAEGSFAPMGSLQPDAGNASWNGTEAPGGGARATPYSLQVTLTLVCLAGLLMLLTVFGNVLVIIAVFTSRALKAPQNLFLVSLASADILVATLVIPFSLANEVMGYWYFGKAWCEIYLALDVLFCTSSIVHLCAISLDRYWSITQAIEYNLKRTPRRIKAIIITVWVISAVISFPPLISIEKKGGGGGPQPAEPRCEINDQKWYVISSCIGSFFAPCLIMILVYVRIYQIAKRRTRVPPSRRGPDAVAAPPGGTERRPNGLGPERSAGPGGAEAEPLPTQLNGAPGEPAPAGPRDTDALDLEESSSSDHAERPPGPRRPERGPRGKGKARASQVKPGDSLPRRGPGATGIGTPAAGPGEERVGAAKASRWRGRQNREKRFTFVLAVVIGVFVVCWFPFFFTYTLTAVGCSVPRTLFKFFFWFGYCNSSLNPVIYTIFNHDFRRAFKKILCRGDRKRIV

A further assay concerns the target Prothrombin (Homo sapiens, UniProt P00734). The assay is classed as functional.
Assay [3] addresses T2, Muscarinic acetylcholine receptor M1 (Homo sapiens, UniProt P11229).
T2 sequence (P11229 whole entry): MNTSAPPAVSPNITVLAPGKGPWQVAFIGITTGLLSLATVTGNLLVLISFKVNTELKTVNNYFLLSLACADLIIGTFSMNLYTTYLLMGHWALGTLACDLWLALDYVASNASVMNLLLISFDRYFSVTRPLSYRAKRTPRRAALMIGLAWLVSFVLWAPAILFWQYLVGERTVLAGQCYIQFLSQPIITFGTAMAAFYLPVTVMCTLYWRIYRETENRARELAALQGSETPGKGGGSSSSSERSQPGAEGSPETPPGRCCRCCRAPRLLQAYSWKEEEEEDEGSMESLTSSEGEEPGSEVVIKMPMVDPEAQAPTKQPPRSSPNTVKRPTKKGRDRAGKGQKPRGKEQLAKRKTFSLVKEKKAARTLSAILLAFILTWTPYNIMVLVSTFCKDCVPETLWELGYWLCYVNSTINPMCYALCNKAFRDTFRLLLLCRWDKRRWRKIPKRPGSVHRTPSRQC
It counts as functional, cell-based.

The target of another assay is D(3) dopamine receptor (Homo sapiens, UniProt P35462).
Sequence of D(3) dopamine receptor (P35462 whole entry): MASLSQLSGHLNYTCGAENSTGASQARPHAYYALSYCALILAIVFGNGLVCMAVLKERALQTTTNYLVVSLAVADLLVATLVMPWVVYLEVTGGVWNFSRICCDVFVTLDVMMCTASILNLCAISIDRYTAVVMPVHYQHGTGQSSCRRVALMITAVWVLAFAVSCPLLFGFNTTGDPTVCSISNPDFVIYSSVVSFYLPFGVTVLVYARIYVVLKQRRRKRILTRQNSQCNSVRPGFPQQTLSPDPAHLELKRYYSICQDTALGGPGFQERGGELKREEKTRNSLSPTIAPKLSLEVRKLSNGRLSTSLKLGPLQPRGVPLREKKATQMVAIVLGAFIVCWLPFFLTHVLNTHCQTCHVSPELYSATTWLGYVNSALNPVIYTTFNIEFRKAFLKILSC
For assay [4], the target named is Voltage-gated inwardly rectifying potassium channel KCNH2 (Homo sapiens, UniProt Q12809). The assay is classed as functional. The conditions noted are these: read-out: AC50.
Sequence of Voltage-gated inwardly rectifying potassium channel KCNH2 (Q12809 whole entry): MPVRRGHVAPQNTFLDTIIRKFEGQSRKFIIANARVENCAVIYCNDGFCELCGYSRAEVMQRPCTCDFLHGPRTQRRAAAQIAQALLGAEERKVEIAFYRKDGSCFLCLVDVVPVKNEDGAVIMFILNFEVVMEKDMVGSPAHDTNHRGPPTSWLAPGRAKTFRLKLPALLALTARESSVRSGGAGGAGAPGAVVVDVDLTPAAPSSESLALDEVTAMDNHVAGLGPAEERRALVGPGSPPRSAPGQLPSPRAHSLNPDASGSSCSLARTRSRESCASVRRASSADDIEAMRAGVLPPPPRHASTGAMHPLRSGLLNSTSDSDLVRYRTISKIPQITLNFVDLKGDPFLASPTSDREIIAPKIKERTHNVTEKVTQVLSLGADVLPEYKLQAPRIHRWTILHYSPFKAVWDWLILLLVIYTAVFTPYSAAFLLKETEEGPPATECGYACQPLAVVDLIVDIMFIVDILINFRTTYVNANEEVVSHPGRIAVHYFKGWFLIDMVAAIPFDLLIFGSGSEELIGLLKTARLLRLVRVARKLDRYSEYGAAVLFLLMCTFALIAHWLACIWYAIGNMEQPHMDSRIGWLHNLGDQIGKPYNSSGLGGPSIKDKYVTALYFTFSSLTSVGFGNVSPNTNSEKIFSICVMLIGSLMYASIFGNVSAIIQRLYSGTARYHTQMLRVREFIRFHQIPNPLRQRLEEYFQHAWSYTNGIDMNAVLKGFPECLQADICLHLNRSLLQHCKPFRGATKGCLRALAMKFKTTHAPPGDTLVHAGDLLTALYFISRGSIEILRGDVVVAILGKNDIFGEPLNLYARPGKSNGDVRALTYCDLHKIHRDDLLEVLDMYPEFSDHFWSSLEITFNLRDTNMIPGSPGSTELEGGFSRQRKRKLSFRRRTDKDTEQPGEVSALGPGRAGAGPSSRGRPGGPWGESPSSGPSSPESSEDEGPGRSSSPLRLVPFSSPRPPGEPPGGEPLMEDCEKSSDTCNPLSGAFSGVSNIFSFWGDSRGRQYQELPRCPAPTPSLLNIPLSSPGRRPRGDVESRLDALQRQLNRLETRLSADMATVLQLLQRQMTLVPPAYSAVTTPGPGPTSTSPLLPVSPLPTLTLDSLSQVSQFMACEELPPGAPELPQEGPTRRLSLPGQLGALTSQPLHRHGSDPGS
Assay [5] concerns the target T3, Muscarinic acetylcholine receptor M2 (Homo sapiens, UniProt P08172).
T3 sequence (P08172 whole entry): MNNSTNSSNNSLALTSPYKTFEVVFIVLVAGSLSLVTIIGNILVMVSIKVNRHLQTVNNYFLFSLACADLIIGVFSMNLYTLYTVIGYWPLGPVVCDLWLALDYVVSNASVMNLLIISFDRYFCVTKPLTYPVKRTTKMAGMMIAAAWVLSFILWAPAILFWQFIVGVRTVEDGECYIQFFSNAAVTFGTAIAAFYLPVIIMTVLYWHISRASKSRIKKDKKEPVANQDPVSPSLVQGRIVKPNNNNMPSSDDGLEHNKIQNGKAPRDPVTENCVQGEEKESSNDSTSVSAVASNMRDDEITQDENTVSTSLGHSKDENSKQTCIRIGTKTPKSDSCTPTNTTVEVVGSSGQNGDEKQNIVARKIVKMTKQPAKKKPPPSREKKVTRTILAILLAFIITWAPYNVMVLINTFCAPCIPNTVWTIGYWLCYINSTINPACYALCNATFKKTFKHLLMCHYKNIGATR

For assay [6], the target named is T4, Alpha-1A adrenergic receptor (Homo sapiens, UniProt P35348).
T4 sequence (P35348 whole entry): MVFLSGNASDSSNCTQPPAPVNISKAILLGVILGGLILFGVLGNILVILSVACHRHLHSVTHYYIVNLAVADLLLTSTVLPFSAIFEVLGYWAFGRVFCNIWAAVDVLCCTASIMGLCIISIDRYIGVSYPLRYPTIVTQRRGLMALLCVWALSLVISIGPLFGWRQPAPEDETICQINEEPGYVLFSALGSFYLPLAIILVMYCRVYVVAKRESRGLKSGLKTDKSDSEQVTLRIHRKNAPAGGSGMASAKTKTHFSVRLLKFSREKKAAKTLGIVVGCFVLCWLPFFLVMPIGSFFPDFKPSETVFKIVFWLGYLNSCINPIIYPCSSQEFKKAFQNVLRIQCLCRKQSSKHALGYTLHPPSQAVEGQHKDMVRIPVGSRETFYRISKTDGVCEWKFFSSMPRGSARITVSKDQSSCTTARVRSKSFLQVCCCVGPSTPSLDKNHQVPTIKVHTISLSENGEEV
The assay is classed as functional, cell-based.

The target of assay [7] is 3',5'-cyclic-AMP phosphodiesterase 4A (Homo sapiens, UniProt P27815). The assay is classed as functional.
Sequence of 3',5'-cyclic-AMP phosphodiesterase 4A (P27815 whole entry): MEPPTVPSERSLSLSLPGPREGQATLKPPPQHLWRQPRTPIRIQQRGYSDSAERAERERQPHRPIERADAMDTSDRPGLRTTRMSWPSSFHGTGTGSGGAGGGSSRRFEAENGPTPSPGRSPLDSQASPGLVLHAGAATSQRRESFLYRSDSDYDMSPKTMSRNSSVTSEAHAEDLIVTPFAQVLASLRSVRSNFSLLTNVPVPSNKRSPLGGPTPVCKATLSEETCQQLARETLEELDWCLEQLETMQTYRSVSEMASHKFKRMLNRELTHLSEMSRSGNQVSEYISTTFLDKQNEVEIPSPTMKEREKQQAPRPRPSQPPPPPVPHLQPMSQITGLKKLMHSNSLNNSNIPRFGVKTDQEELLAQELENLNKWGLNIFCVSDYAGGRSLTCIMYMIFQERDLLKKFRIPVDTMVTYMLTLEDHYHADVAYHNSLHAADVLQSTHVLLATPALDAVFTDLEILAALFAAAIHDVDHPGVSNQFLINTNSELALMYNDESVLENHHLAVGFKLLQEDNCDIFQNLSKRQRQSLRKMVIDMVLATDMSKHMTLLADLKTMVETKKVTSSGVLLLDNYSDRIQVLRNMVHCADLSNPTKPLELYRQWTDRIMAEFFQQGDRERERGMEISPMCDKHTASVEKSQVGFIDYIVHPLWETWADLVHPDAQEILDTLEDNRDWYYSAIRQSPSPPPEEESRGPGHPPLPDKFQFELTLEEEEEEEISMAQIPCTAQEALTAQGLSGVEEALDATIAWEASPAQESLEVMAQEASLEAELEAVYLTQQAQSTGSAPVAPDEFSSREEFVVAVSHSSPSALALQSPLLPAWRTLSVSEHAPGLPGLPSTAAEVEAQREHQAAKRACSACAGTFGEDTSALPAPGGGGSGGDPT
The next assay has as its target T5, Thromboxane A2 receptor (Homo sapiens, UniProt P21731).
T5 sequence (P21731 whole entry): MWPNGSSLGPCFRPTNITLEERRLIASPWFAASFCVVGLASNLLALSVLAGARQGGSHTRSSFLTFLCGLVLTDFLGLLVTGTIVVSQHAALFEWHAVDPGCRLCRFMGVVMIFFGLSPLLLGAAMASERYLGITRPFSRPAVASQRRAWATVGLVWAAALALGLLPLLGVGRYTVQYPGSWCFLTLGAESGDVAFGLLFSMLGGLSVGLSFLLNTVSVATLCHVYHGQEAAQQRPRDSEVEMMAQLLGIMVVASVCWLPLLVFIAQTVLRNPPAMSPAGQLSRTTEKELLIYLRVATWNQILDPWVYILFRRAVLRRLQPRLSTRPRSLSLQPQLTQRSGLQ
The assay is classed as functional, cell-based.
Note: assay procedure not described here.

Sequence of Sodium-dependent dopamine transporter (Q01959 whole entry): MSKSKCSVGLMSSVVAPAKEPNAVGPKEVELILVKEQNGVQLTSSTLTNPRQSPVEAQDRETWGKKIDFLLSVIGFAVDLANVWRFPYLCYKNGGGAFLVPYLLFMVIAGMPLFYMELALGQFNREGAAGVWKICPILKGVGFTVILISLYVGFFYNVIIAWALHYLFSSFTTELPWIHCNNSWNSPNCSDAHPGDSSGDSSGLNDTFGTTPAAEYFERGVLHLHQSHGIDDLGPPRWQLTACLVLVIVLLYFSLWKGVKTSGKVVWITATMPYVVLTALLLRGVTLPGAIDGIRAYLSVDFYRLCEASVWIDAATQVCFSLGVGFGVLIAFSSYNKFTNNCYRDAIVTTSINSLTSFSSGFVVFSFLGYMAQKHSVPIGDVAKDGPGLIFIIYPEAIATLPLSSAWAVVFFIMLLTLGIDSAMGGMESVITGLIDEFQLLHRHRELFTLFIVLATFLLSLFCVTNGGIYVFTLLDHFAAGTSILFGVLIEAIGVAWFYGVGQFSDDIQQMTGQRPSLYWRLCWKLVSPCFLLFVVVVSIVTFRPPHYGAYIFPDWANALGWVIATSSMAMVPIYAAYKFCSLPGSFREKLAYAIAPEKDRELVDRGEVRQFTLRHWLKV

Consider `CCCCCNC(=N)N/N=C/c1c[nH]c2ccc(OC)cc12` [TEGASEROD], for which the AC50 was 1.85 µM in assay [1]; 0.92 µM in assay [2]; more than 30 µM at Prothrombin; more than 3 µM in assay [3]; 5.62 µM at D(3) dopamine receptor; 4.8 µM in assay [4]. Also, the AC50 in [5] is 6.59 µM; in assay [6], 1.16 µM; in [7], more than 30 µM; at Thromboxane A2 receptor it was more than 3 µM.

`Nc1ccc(S(=O)(=O)c2cnc(N)s2)cc1` [THIAZOLSULFONE]: the AC50 is 24.3 µM in assay [1]; more than 30 µM in assay [2]; more than 30 µM at Prothrombin; more than 30 µM in assay [3]; more than 30 µM on D(3) dopamine receptor; more than 30 µM in assay [4]. Also, the AC50 (in assay [5]; in assay [6]; in assay [7]; at Thromboxane A2 receptor) was more than 30 µM each time.

Consider `CCCCS(=O)(=O)N[C@@H](Cc1ccc(OCCCCC2CCNCC2)cc1)C(=O)O` [TIROFIBAN], for which the AC50 (in assay [1]; in assay [2]; at Prothrombin; in assay [3]; at D(3) dopamine receptor; in assay [4]) was more than 30 µM in each case. Also, the AC50 was 20.4 µM in [5], more than 10 µM in assay [6], more than 30 µM in assay [7] and more than 30 µM on Thromboxane A2 receptor.

Take `CC(CNC(=O)c1ccccc1)C(=O)OCC(=O)[C@@]12OC(C)(C)O[C@@H]1C[C@H]1[C@@H]3CCC4=CC(=O)C=C[C@]4(C)[C@@]3(F)[C@@H](O)C[C@@]12C` (stereo not given in full) [TRIAMCINOLONE BENETONIDE]: the AC50 (in assay [1]; in assay [2]; on Prothrombin; in assay [3]; at D(3) dopamine receptor; in [4]) was more than 30 µM throughout. Also, the AC50 (in assay [5]; in [6]; in assay [7]; at Thromboxane A2 receptor) was more than 30 µM throughout.

Regarding `O=C(Nc1ccc(Cl)cc1)Nc1ccc(Cl)c(Cl)c1` [TRICLOCARBAN], the AC50 in assay [1] was more than 10 µM; in assay [2] it was more than 30 µM; on Prothrombin, more than 30 µM; in assay [3], more than 30 µM; on D(3) dopamine receptor, more than 30 µM; in assay [4] it was more than 30 µM. Moreover, the AC50 in assay [5] is more than 30 µM; in assay [6] it was 2.44 µM; in assay [7] it was 25.4 µM; at Thromboxane A2 receptor, more than 30 µM.

As for `COC1=C(OC)C(=O)C(C/C=C(\C)CC/C=C(\C)CC/C=C(\C)CC/C=C(\C)CC/C=C(\C)CC/C=C(\C)CC/C=C(\C)CC/C=C(\C)CC/C=C(\C)CCC=C(C)C)=C(C)C1=O` [UBIDECARENONE], the AC50 (in assay [1]; in [2]; at Prothrombin; in assay [3]; on D(3) dopamine receptor; in [4]) was more than 30 µM in each case. Also, the AC50 (in assay [5]; in [6]; in assay [7]; at Thromboxane A2 receptor) was more than 30 µM each time.

For the compound `CCOc1ccccc1OCC1CNCCO1` (stereo not given) [VILOXAZINE], the AC50 (in assay [1]; in assay [2]; at Prothrombin; in assay [3]; at D(3) dopamine receptor; in assay [4]) was more than 30 µM throughout. Further, the AC50 (in [5]; in [6]; in [7]; at Thromboxane A2 receptor) was more than 30 µM throughout.

In the case of `OC[C@@H](O)[C@H](O)[C@@H](O)CO` [XYLITOL], the AC50 (in assay [1]; in assay [2]; on Prothrombin; in assay [3]; on D(3) dopamine receptor; in assay [4]) was more than 30 µM throughout. Besides, the AC50 (in [5]; in assay [6]; in assay [7]; at Thromboxane A2 receptor) was more than 30 µM in each case.

As a reminder, the AC50 is the concentration giving half of the maximal activity seen.
